# Results as given in US12037322B2, “AHR agonists” (Eli Lilly and Company, priority 2021, dated 2024).
# Target: T1, hAHR (Homo sapiens, UniProt P35869)
# T1 construct: expressed in transfected cells
# T1 sequence (P35869 11-848): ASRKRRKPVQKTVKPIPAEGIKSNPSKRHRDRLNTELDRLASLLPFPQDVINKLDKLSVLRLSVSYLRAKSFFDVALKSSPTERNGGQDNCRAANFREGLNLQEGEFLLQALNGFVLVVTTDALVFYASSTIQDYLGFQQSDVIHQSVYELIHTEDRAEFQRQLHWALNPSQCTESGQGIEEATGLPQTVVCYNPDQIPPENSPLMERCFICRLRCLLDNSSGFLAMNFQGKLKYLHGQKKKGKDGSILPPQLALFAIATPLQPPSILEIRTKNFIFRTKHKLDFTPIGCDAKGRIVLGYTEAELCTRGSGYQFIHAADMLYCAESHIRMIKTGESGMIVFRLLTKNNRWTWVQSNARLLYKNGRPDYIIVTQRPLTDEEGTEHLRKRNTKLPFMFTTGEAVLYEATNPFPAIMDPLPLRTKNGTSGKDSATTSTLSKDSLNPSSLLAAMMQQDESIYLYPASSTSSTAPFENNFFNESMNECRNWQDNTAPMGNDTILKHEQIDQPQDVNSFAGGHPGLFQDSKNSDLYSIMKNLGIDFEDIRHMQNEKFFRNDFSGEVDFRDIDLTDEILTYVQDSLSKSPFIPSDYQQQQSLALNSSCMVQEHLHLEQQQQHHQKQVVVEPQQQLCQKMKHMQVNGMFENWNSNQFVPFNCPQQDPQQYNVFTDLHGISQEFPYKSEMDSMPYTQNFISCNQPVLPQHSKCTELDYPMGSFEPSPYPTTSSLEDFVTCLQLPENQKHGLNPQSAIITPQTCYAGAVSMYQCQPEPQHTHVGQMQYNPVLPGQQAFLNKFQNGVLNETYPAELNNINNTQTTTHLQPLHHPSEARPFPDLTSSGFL
# Assay: hAHR nuclear translocation assay
# Format: cell-based
# Conditions: Jump-In T-REx HEK293 cells expressing AhR-EGFP; 45 min incubation; ratio of EGFP intensity in nuclear over cytosol; 20-point curve
# Protocol: Stable cell lines were established using Jump-In™ T-REx™ HEK293 Retargeting Kit (Life Technologies). hAhR cDNA was cloned into the pJTI R4 CMV-TO EGFP vector. The EGFP was cloned to the C-terminal of AHR to form AhR-EGFP chimera. The pJTI R4 CMV-TO AhR-EGFP vector was transfected using FuGENE® HD into Jump-In™ T-REx™ HEK293 cells. Transfected cells were selected using 2.5 mg/ml G418 for 10 to 14 days, then expanded, harvested, and suspended in freeze media (FBS with 8% DMSO) at 2×10^7 cells/mL, and aliquots were stored in liquid nitrogen. One day before the assay date, cells were thawed and resuspended in DMEM with 5% FBS in the presence of 1 μg/mL Doxycycline and plated into ploy-L-Lysine coated […]-384 ULTRA Microplates (Perkin Elmer) at 12,000 to 15,000 cells per well and incubated at 37° C. and 5% CO2 overnight. On the assay date, compound was serially diluted (1:2) into 384-well nunc plates with DMSO using acoustic dispensing (ECHO). The dose response was a 20-point curve. Compound was resuspended in 40 μL of DMEM plus 0.1% BSA. The culture media was damped and 25 μL of DMEM plus 0.1% BSA was added, then 25 μL of compound in DMEM plus 0.1% BSA was added into cell plates. Cells were incubated with compounds at 37° C. and 5% CO2 for 45 min.
# The final DMSO concentration was 0.2%. The media was damped after 45 minutes incubation. The cells were fixed with 40 μL of cold MeOH (−20° C.) for 20 min. The MeOH was damped and 50 μL of DPBS containing 1 μg/mL Hochst was added into the cell plates. The intensity of EGFP was quantitated by using OPERA PHENIX® or Operetta™ high content image system (Perkin Elmer) with 20× Water Objective and five field per well. The ratio of EGFP fluorescent intensity in nuclear over cytosol was analyzed using a 4-parameter nonlinear logistic equation to determine the potency of AhR agonists.
row,SMILES,EC50
1,"COc1cnc(NC(=O)c2c(O)c3c(n(C)c2=O)CCC3C)nc1 (single isomer, unassigned) [Example 102, 4-Hydroxy-N-(5-methoxypyrimidin-2-yl)-1,5-dimethyl-2-oxo-6,7-dihydro-5H-cyclopenta[b]pyridine-3-carboxamide]",2.59 nM
2,"CC(C)C1CCc2c1cc(C(=O)Nc1ncc(F)cn1)c(=O)n2C (single isomer, unassigned) [Example 112, N-(5-fluoropyrimidin-2-yl)-5-isopropyl-1-methyl-2-oxo-6,7-dihydro-5H-cyclopenta[b]pyridine-3-carboxamide]",0.865 nM
3,"CC(C)C1CCc2c1cc(C(=O)Nc1ncc(F)cn1)c(=O)n2C (single isomer, unassigned) [Example 113, N-(5-fluoropyrimidin-2-yl)-5-isopropyl-1-methyl-2-oxo-6,7-dihydro-5H-cyclopenta[b]pyridine-3-carboxamide]",11.2 nM
4,"CCC1CCc2c1cc(C(=O)Nc1ncc(F)cn1)c(=O)n2C (single isomer, unassigned) [Example 114, 5-ethyl-N-(5-fluoropyrimidin-2-yl)-1-methyl-2-oxo-6,7-dihydro-5H-cyclopenta[b]pyridine-3-carboxamide]",2.44 nM
5,"CCC1CCc2c1cc(C(=O)Nc1ncc(F)cn1)c(=O)n2C (single isomer, unassigned) [Example 115, 5-ethyl-N-(5-fluoropyrimidin-2-yl)-1-methyl-2-oxo-6,7-dihydro-5H-cyclopenta[b]pyridine-3-carboxamide]",2.96 nM
6,"CC1CCc2c1cc(C(=O)Nc1ncc(F)cn1)c(=O)n2C (stereo not shown) [Example 1, N-(5-Fluoropyrimidin-2-yl)-1,5-dimethyl-2-oxo-6,7-dihydro-5H-cyclopenta[b]pyridine-3-carboxamide]",9.78 nM
7,"CC1CCc2c1cc(C(=O)Nc1ccc(F)cn1)c(=O)n2C (stereo not shown) [Example 2, N-(5-Fluoro-2-pyridyl)-1,5-dimethyl-2-oxo-6,7-dihydro-5H-cyclopenta[b]pyridine-3-carboxamide]",9.78 nM
8,"CC1CCc2c1cc(C(=O)Nc1ccc(C(F)(F)F)cn1)c(=O)n2C (stereo not shown) [Example 4, 1,5-Dimethyl-2-oxo-N-[5-(trifluoromethyl)-2-pyridyl]-6,7-dihydro-5H-cyclopenta[b]pyridine-3-carboxamide]",1.82 nM
9,"CC1CCc2c1cc(C(=O)Nc1ncccc1F)c(=O)n2C (stereo not shown) [Example 5, N-(3-Fluoro-2-pyridyl)-1,5-dimethyl-2-oxo-6,7-dihydro-5H-cyclopenta[b]pyridine-3-carboxamide]",16.9 nM
10,"CC1CCc2c1cc(C(=O)Nc1ccc(C(F)(F)F)nc1)c(=O)n2C (stereo not shown) [Example 6, 1,5-Dimethyl-2-oxo-N-[6-(trifluoromethyl)-3-pyridyl]-6,7-dihydro-5H-cyclopenta[b]pyridine-3-carboxamide]",4.57 nM
11,"CC1CCc2c1cc(C(=O)Nc1nccc(C(F)(F)F)n1)c(=O)n2C (stereo not shown) [Example 7, 1,5-Dimethyl-2-oxo-N-[4-(trifluoromethyl)pyrimidin-2-yl]-6,7-dihydro-5H-cyclopenta[b]pyridine-3-carboxamide]",8.26 nM
12,"CC1CCc2c1cc(C(=O)Nc1ncc(C(F)(F)F)cn1)c(=O)n2C (stereo not shown) [Example 8, 1,5-Dimethyl-2-oxo-N-[5-(trifluoromethyl)pyrimidin-2-yl]-6,7-dihydro-5H-cyclopenta[b]pyridine-3-carboxamide]",1.42 nM
13,"CC1CCc2c1cc(C(=O)NC1CCCC1)c(=O)n2C (stereo not shown) [Example 9, N-Cyclopentyl-1,5-dimethyl-2-oxo-6,7-dihydro-5H-cyclopenta[b]pyridine-3-carboxamide]",191 nM
14,"C[C@H]1CCc2c1cc(C(=O)Nc1nnc(C(F)(F)F)s1)c(=O)n2C [Example 10, (5S)-1,5-Dimethyl-2-oxo-N-[5-(trifluoromethyl)-1,3,4-thiadiazol-2-yl]-6,7-dihydro-5H-cyclopenta[b]pyridine-3-carboxamide]",13.7 nM
15,"C[C@H]1CCc2c1cc(C(=O)Nc1nnc(C(F)(F)F)o1)c(=O)n2C [Example 11, (5S)-1,5-Dimethyl-2-oxo-N-[5-(trifluoromethyl)-1,3,4-oxadiazol-2-yl]-6,7-dihydro-5H-cyclopenta[b]pyridine-3-carboxamide]",64.7 nM
16,"C[C@@H]1CCc2c1cc(C(=O)Nc1ncc(F)cn1)c(=O)n2C [Example 12, (5R)-N-(5-Fluoropyrimidin-2-yl)-1,5-dimethyl-2-oxo-6,7-dihydro-5H-cyclopenta[b]pyridine-3-carboxamide]",7.9 nM
17,"C[C@H]1CCc2c1cc(C(=O)Nc1ncc(F)cn1)c(=O)n2C [Example 13, (5S)-N-(5-Fluoropyrimidin-2-yl)-1,5-dimethyl-2-oxo-6,7-dihydro-5H-cyclopenta[b]pyridine-3-carboxamide]",4.67 nM
18,"Cn1c2c(cc(C(=O)Nc3ncc(F)cn3)c1=O)C(C)(C)CC2 [Example 14, N-(5-Fluoropyrimidin-2-yl)-1,5,5-trimethyl-2-oxo-6,7-dihydrocyclopenta[b]pyridine-3-carboxamide]",26.8 nM
19,"CC1CCc2c1cc(C(=O)Nc1nccs1)c(=O)n2C (stereo not shown) [Example 15, 1,5-Dimethyl-2-oxo-N-thiazol-2-yl-6,7-dihydro-5H-cyclopenta[b]pyridine-3-carboxamide]",1.93 nM
20,"C[C@@H]1CCc2c1cc(C(=O)Nc1ccns1)c(=O)n2C [Example 16, (5R)-N-Isothiazol-5-yl-1,5-dimethyl-2-oxo-6,7-dihydro-5H-cyclopenta[b]pyridine-3-carboxamide]",1.35 nM
21,"C[C@H]1CCc2c1cc(C(=O)Nc1ccns1)c(=O)n2C [Example 17, (5S)-N-Isothiazol-5-yl-1,5-dimethyl-2-oxo-6,7-dihydro-5H-cyclopenta[b]pyridine-3-carboxamide]",1.34 nM
22,"C[C@@H]1CCc2c1cc(C(=O)Nc1ccsn1)c(=O)n2C [Example 18, (5R)-N-Isothiazol-3-yl-1,5-dimethyl-2-oxo-6,7-dihydro-5H-cyclopenta[b]pyridine-3-carboxamide]",1.32 nM
23,"C[C@H]1CCc2c1cc(C(=O)Nc1ccsn1)c(=O)n2C [Example 19, (5S)-N-Isothiazol-3-yl-1,5-dimethyl-2-oxo-6,7-dihydro-5H-cyclopenta[b]pyridine-3-carboxamide]",1.04 nM
24,"C[C@@H]1CCc2c1cc(C(=O)Nc1cnsc1)c(=O)n2C [Example 20, (5R)-N-Isothiazol-4-yl-1,5-dimethyl-2-oxo-6,7-dihydro-5H-cyclopenta[b]pyridine-3-carboxamide]",5.23 nM
25,"C[C@H]1CCc2c1cc(C(=O)Nc1cnsc1)c(=O)n2C [Example 21, (5S)-N-Isothiazol-4-yl-1,5-dimethyl-2-oxo-6,7-dihydro-5H-cyclopenta[b]pyridine-3-carboxamide]",4.72 nM
26,"C[C@H]1CCc2c1cc(C(=O)Nc1ccccn1)c(=O)n2C [Example 22, (5S)-1,5-Dimethyl-2-oxo-N-(2-pyridyl)-6,7-dihydro-5H-cyclopenta[b]pyridine-3-carboxamide]",4.1 nM
27,"C[C@@H]1CCc2c1cc(C(=O)Nc1ccccn1)c(=O)n2C [Example 23, (5R)-1,5-Dimethyl-2-oxo-N-(2-pyridyl)-6,7-dihydro-5H-cyclopenta[b]pyridine-3-carboxamide]",11.5 nM
28,"C[C@H]1CCc2c1cc(C(=O)Nc1ncc(Cl)cn1)c(=O)n2C [Example 24, (5S)-N-(5-Chloropyrimidin-2-yl)-1,5-dimethyl-2-oxo-6,7-dihydro-5H-cyclopenta[b]pyridine-3-carboxamide]",2.45 nM
